Source: patent US9734283B2, “Genomic features associated with epigenetic control regions and transgenerational inheritance of epimutations” (priority 2011, dated 2017)

Tests used:
[1] = system: sperm promoter epigenome (DNA methylation); assay: MeDIP-Chip with Affymetrix mouse promoter tiling arrays; assay type: in vivo; settings: duplicate arrays, no direct comparative hybridization; none confirmed by bisulfite PCR and mass spectrometry
Excerpt: Affymetrics' GeneChip® Mouse Promoter 1.0R Array was used, which contains 4.6 million probes tiled that interrogate nearly 28,000 mouse promoter regions. These probes are 25-mer and tiled at an average resolution of 35 bp with gaps of approximately 10 bp between probes. Each promoter region covers approximately 6 kb upstream through 2.5 kb downstream of 5′ transcription start sites. A total of 6 arrays were used, one each for C1, C2, V1 and V2, one for C1+C2 and another for their DNA inputs, InpC1+InpC2.

[2] = system: sperm promoter epigenome (DNA methylation); assay: MeDIP-Chip (Nimblegen promoter tiling array, competitive hybridization) of F3 sperm DNA with qPCR validation; assay type: in vivo, mouse; settings: F3 generation sperm
Experimental: Sperm heads were separated from tails and purified following the protocol described^53 (without protease inhibitors) from a total of six F3 vinclozolin generation mice and six F3 control generation mice in the range of 13-15 months of age. Sperm heads were then further purified using a 70% sucrose gradient centrifugation, based on the method described.^54 Purified sperm heads were resuspended in 1 ml buffer 0.5M tris-HCl, pH 8, 0.5M EDTA, 10% SDS and treated with 100 μl proteinase K (20 mg/mL) and 100 μl DDT (0.1 M) at 55° C. for 1 hour. DNA was precipitated with 50% isopropanol, washed with 70% ethanol and resuspended in DEPC H20. Individual sperm DNA was used as samples for further methylated DNA immunoprecipitation.^15 Two pools of samples were produced for each experimental treatment (control and vinclozolin), therefore each pool contained DNA from three animals from different litters. The MeDIP was performed as follows: 6 μg of genomic DNA was subjected to series of three 20 pulse sonications at 20% amplitude and the appropriate fragment size (200-1000 bp) was verified through 2% agarose gels; the sonicated genomic DNA was resuspended in 350 μl TE and denaturated for 10 min at 95° C. and then immediately placed on ice for 5 min; 100 μl of 5×IP buffer (50 mM Na-phosphate pH7, 700 mM NaCl, 0.25% Triton X-100) was added to the sonicated and denatured DNA.
An overnight incubation of the DNA was performed with 5 μg of antibody anti-5-methylcytidine monoclonal from Diagenode S.A at 4° C. on a rotating platform. Protein A/G beads from Santa Cruz were prewashed on PBS-BSA 0.1% and resuspended in 40 μl 1× IP buffer. Beads were then added to the DNA-antibody complex and incubated 2 h at 4° C. on a rotating platform. Beads bound to DNA-antibody complex were washed 3 times with 1 ml 1×IP buffer; washes included incubation for 5 min at 4° C. on a rotating platform and then centrifugation at 6000 rpm for 2 min. Beads-DNA-antibody complex were then resuspended in 250 μl digestion buffer (50 mM Tris HCl pH 8, 10 mM EDTA, 0.5% SDS) and 3.5 μl of proteinase K (20 mg/ml) was added to each sample and then incubated overnight at 55° C. on a rotating platform. DNA purification was performed first with phenol and then with chloroform: isoamyl alcohol. Two washes were then performed with 70% ethanol, 1 M NaCl and glycogen. MeDIP-selected DNA was then resuspended in 30 μl TE buffer. MeDIP sperm DNA was pooled into each of the four above mentioned groups, adding equal amounts of sperm DNA from each individual sample to the pools. Therefore, a total of four pools of MeDIP sperm DNA (C1, C2, V1 and V2) were used for the ChIP arrays.
Nimblegen Mouse Promoter 3×720K format microarray (Mouse Ref Seq promoter array) was used, each subarray contains 709,520 probes. […]

caudal epididymal sperm = assay: Epididymal sperm motility and concentration analyses; assay type: in vivo, mouse
Experimental: The sperm motility was determined using caudal epididymal sperm. The epididymis was dissected free of connective tissue and a small cut made to the cauda. The tissue was placed in 2 ml F12 culture medium containing 0.1% BSA for 10 minutes at 37° C. Fifty microliters was placed on a warm slide and gently cover-slipped. The specimen was immediately examined using phase contrast microscopy with 200×magnification. The sperm motility assays examined rapid progressive, slow progressive and non-progressive motility according to WHO category.^51 The ratio of motile sperm to the total number of sperm, including immotile sperm, was calculated. Approximately 50-100 sperm were counted per microscopic field. The procedure was repeated at least twice with a new specimen from the same epididymis. Epididymal sperm count was determined using the same epididymis according to a previously described method with some modifications.^25, 52 Briefly, the epididymis that was placed in the 2 ml of culture medium was minced. The tissue pieces were stored at 4° C. for 48 hours to immobilize the sperm. Three independent sperm samples were counted using a hemocytometer. The counts were averaged and used as a replicate in statistical analysis. The control and vinclozolin generation analysis and the control and flutamide generation analysis for an individual experiment were done at the same time. All analyses were done blinded, such that different individuals were used for collection and counting.

For `C=CC1(C)OC(=O)N(c2cc(Cl)cc(Cl)c2)C1=O` (racemic) [vinclozolin, (RS)-3-(3,5-dichlorophenyl)-5-methyl-5-vinyl-1,3-oxazolidine-2,4-dione], the “number of differential methylation regions identified with Affymetrix tiling arrays” value [1] was “seven”, the “number of confirmed sites with decreased DNA methylation” value ([2]; CD-1) was 12 and the “number of confirmed sites with increased DNA methylation” value ([2]; CD-1) was 28. The “number of promoters with differential DNA methylation regions (DMR), MeDIP-Chip” value ([2]; CD-1, vinclozolin 100 mg/kg/day lineage vs control) was 66, the “number of DMR confirmed with qPCR” value ([2]; CD-1, vinclozolin lineage vs control) was 40 and the “mean epididymal sperm concentration” value (caudal epididymal sperm; primarily F1 generation, not observed in 129 strain F2 or F3) was “reduction”. The “mean percentage of motile epididymal sperm” value (caudal epididymal sperm; primarily in the F1 generation males) was “reduction”.
